The nature of the data set: solubility of sunitinib base (applicants' observation). The class given is physicochemical. Conditions: qualitative; dissolution in solvents for salt preparation. From the text: In this regard, the low solubility of sunitinib base requires large amounts of solvents or mixture of solvents and/or the use of particular harsh conditions aimed to increase the solubility of sunitinib base and/or reduce long reaction times, which represents a significant drawback, especially for industrial scale-up. Further, solid sunitinib base is difficult to handle since it is a very fine powder which is difficult to filter and isolate.

`CCN(CC)CCNC(=O)c1c(C)[nH]c(/C=C2\C(=O)Nc3ccc(F)cc32)c1C` [sunitinib base, N-[2-(diethylamino)ethyl]-5-[(Z)-(5-fluoro-1,2-dihydro-2-oxo-3H-indol-3-yliden)methyl]-2,4-dimethyl-1H-pyrrole-3-carboxamide]: the solubility profile entry is recorded as “low solubility profile”.

The record behind these values is patent US8153678B2, “Process for preparing A 3-pyrrole substituted 2-indolinone malate salt” (Medichem, S.A., priority 2008, dated 2012).
